Experimental data from US12138346B2, “Physiologically active substance carrier” (LEMONEX INC., priority 2017, dated 2024).
One block for each molecule: values may come before it.

Experiments:
Assay type in all cases: physicochemical
[1] = Release of doxorubicin from porous silica particles; details: loaded on porous silica particles of Example 1-(1); PBS, 37° C., 200 rpm
Protocol: 0.5 mg of porous silica particles loaded with doxorubicin (0.1 mg) was dispersed in PBS. This solution was maintained in a dynamic condition for horizontal agitation at 37° C. and 200 rpm. The doxorubicin-loaded porous silica solution was settled by a centrifugal separator at each time point, an absorbance of the supernatant (λab=480 nm) was measured to determine an amount of released doxorubicin, and results thereof are shown in FIG. 13.

[2] = Release of irinotecan from porous silica particles in human plasma; details: loaded on negatively charged particles of Example 2-(3)-1), 37° C., 200 rpm
Protocol: 1 mg of porous silica particles loaded with irinotecan (0.2 mg) was dispersed in 1 mL of human plasma. This solution was maintained in a dynamic condition for horizontal agitation at 37° C. and 200 rpm. The irinotecan-loaded porous silica solution was settled by a centrifugal separator at each time point, an absorbance of the supernatant (λab=255 or 278 nm) was measured to determine an amount of released irinotecan, and results thereof are shown in FIG. 14.

[3] = Release of sorafenib from porous silica particles; details: loaded on particles of Example 1-(11)-5)(i) (hydrophobic substituent); 1×PBS, 37° C., 200 rpm
Protocol: 1 mg of porous silica particles loaded with sorafenib (0.1 mg) was dispersed in 10 mL of 1×PBS mL. This solution was maintained in a dynamic condition for horizontal agitation at 37° C. and 200 rpm. The sorafenib-loaded porous silica solution was settled by a centrifugal separator at each time point, an absorbance of the supernatant (λab=270 nm) was measured to determine an amount of released sorafenib, and results thereof are shown in FIG. 15.

[4] = Release of p53 peptides from porous silica particles; details: loaded on particles of Example 1-(11)-5)(i), 37° C., 20 rpm
Protocol: 5 mg of particles loaded with p53 peptides was put in 5 mL of 1×PBS containing 10% FBS or 5 mL of 1×PBS, and held in a dynamic environment while rotating at 37° C. and 20 rpm. The solution was centrifuged at 8500 rpm at each time point, and a fluorescent intensity of 5(6)-carboxy fluorescein (FAM) as a fluorescent label coupled to p53 peptide in the supernatant was measured ([…]: 480 nm, Emission: 520 nm).

[5] = Release of Cy5-siRNA from porous silica particles; details: Cy5-siRNA loaded on particles of Example 2-(1)-2)(ii); SBF (pH 7.4, 37° C.), 60 rpm
Protocol: 10 μl of the porous silica particles loaded with Cy5-siRNA was re-suspended in SBF (pH 7.4, 37° C.) and then put in a permeable membrane having a pore diameter of 20 kDa (tube in FIG. 18).
Thereafter, the permeable tube was dipped in 1.5 ml of SBF.
Before 24 hours, the released solvent was recovered at a time passing 0.5, 1, 2, 4, 8, 12 and 24 hours. Thereafter, 0.5 ml of released solvent was recovered at an interval of 24 hours for fluorescence measurement, followed by addition of SBF in equal amount.
Fluorescent intensity of Cy5-siRNA was measured at a wavelength of 670 nm (λex=647 nm) to determine a release degree of siRNA, and results thereof are shown in FIG. 19.

[6] = Release of RNase A from porous silica particles; details: over 250 hours or more; SBF (pH 7.4) or PBS (pH 7.4), 37° C.; loaded on particles of Example 1-(9)
Protocol: 100 μg of the porous silica particles loaded with RNase A having fluorescence labeled therewith was re-suspended in 200 μl of SBF (pH 7.4) or PBS (pH 7.4).
Release of RNase A was performed at 37° C. while horizontally stirring at 60 rpm.
At a time point of 6, 12, 24, 48, 96, 144 and 240 hours, 200 μl of released solvent was recovered for fluorescence measurement, followed by addition of SBF or PBS in equal amount.

irinotecan released ([2]; after 5.5 hours): about 50%
time over which irinotecan was continuously released [2]: ≥ 120 h
Molecule: CCc1c2c(nc3ccc(OC(=O)N4CCC(N5CCCCC5)CC4)cc13)-c1cc3c(c(=O)n1C2)COC(=O)[C@]3(O)CC [irinotecan]

release of sorafenib (in words) [3]: very slowly released
Molecule: CNC(=O)c1cc(Oc2ccc(NC(=O)Nc3ccc(Cl)c(C(F)(F)F)c3)cc2)ccn1 [sorafenib]

Further lines, the molecule ahead of its results:

Molecule: COc1cccc2c1C(=O)c1c(O)c3c(c(O)c1C2=O)C[C@@](O)(C(=O)CO)C[C@@H]3O[C@H]1C[C@H](N)[C@H](O)[C@H](C)O1 [doxorubicin]
release of doxorubicin (in words) [1]: relatively quickly released
time over which doxorubicin was continuously released [1]: ≥ 70 h

Molecule: Z-Gly-Gly-Qln-Ser-Qln-Qln-Thr-Phe-Y-Asn-Leu-Trp-Arg-Leu-Leu-X-Qln-Asn-NH2 (GGXSXXTFXNLWRLLXXN; not fully specified; FAM label; triazole staple; C-terminal amide; p53 peptide; SITE 3 1 - Xaa is Qln; 2 - Xaa is Qln; SITE 9 3 - Xaa is a non-natural amino acid introduced with an alkyne functional group wherein 4-pentynoic acid is introduced at a side chain of D-Lys; SITE 16 4 - Xaa is a non-natural amino acid introduced with an azide functional group and denotes 2-amino-5-azido-pentanoic acid; SITE 17 5 - Xaa is Qln) [FAM-labelled triazole-stapled peptide mimicking p53, antagonist of hMDM2]
release of p53 peptide (in words) ([4]; 1×PBS containing 10% FBS): may be released outside the particle
release of p53 peptide (in words) ([4]; 1×PBS): not released

Molecule: siRNA: 21 base pair duplex siRNA that targets green fluorescent protein (GFP), SEQ ID NO: 1 and 2; loaded on particles of Example 2-(1)-2)(ii) (sense GGCUACGUCCAGGAGCGCACC; antisense UGCGCUCCUGGACGUAGCCUU; Cy5 label, chemistry not fully specified)
time over which 50% of siRNA was released [5]: about 48 hours

B1: RNase A: RNase A (Sigma Aldrich, R6513), fluorescence labeled, loaded on particles of Example 1-(9) (protein, UniProt P61823 27-150, looked up)
Ribonuclease pancreatic: KETAAAKFERQHMDSSTSAASSSNYCNQMMKSRNLTKDRCKPVNTFVHESLADVQAVCSQKNVACKNGQTNCYQSYSTMSITDCRETGSSKYPNCAYKTTQANKHIIVACEGNPYVPVHFDASV
modifications: fluorescence labeled
RNase A released [6]: ~100%
